Measured values taken from US20220289708A1, “SUBSTITUTED N-PHENYL URACILS, SALTS THEREOF AND THEIR USE AS HERBICIDAL AGENTS” (Bayer Aktiengesellschaft, priority 2019, published 2022).

Assays:
Type in all cases: in vivo
[1] = tested on: Glycine max; test: Pre-emergence crop plant compatibility; conditions: application rate 20 g/ha, observed effect on crop vs untreated controls after about 3 weeks
In short: (§1)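 Crop seeds sown in pots and covered with soil; WP or EC formulations sprayed on the soil surface as aqueous suspension/emulsion with 0.5% additive at 600 l/ha water, 20 g/ha. Greenhouse-grown about 3 weeks, then damage scored visually as % versus untreated controls (100% = plants dead).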

[2] = tested on: Digitaria sanguinalis; test: Post-emergence herbicidal action; conditions: application rate 5 g/ha, rated visually after about 3 weeks vs untreated controls
In short: (§2)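 Greenhouse-grown plants in sandy loam treated at one-leaf stage, 2–3 weeks after sowing, with WP or EC formulations sprayed as aqueous suspension/emulsion plus 0.5% additive at 600 l/ha water; rates 20 g/ha and less. Visual rating after about 3 weeks versus untreated controls (100% = plants dead, 0% = like control).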

[3] = tested on: Veronica persica; test: Post-emergence herbicidal action; conditions: application rate 5 g/ha
In short: as §2

[4] = tested on: Pharbitis purpurea; test: Post-emergence herbicidal action; conditions: application rate 5 g/ha, rated visually after about 3 weeks vs untreated controls
In short: as §2

[5] = tested on: Abutilon theophrasti; test: Post-emergence herbicidal action; conditions: application rate 5 g/ha, rated visually after about 3 weeks vs untreated controls
In short: as §2

[6] = tested on: Echinochloa crus-galli; test: Post-emergence herbicidal action; conditions: application rate 5 g/ha, rated visually after about 3 weeks vs untreated controls
In short: as §2

[7] = tested on: Amaranthus retroflexus; test: Post-emergence herbicidal action; conditions: application rate 5 g/ha, rated visually after about 3 weeks vs untreated controls
In short: as §2

[8] = tested on: Digitaria sanguinalis; test: Pre-emergence herbicidal action; conditions: application rate 20 g/ha
In short: (§3)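 Percentages are visual ratings against untreated controls, where 100% means dead plants and 0% means no difference. Compounds were applied at 80 g/ha or lower to the soil over freshly sown seeds, then pots stayed in the greenhouse about 3 weeks.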

[9] = tested on: Lolium rigidum; test: Pre-emergence herbicidal action; conditions: application rate 80 g/ha
In short: as §3

[10] = tested on: Viola tricolor; test: Pre-emergence herbicidal action; conditions: application rate 20 g/ha
In short: as §3

[11] = tested on: Setaria viridis; test: Pre-emergence herbicidal action; conditions: application rate 20 g/ha
In short: as §3

[12] = tested on: Polygonum convolvulus; test: Pre-emergence herbicidal action; conditions: application rate 20 g/ha
In short: as §3

[13] = tested on: Avena fatua; test: Pre-emergence herbicidal action
In short: as §3

[14] = tested on: Veronica persica; test: Pre-emergence herbicidal action; conditions: application rate 20 g/ha
In short: as §3

[15] = tested on: Matricaria inodora; test: Pre-emergence herbicidal action; conditions: application rate 20 g/ha
In short: as §3

[16] = tested on: Pharbitis purpurea; test: Pre-emergence herbicidal action; conditions: application rate 20 g/ha
In short: as §3

[17] = tested on: Alopecurus myosuroides; test: Pre-emergence herbicidal action
In short: as §3

[18] = tested on: Abutilon theophrasti; test: Pre-emergence herbicidal action; conditions: application rate 20 g/ha
In short: as §3

[19] = tested on: Echinochloa crus-galli; test: Pre-emergence herbicidal action
In short: as §3

[20] = tested on: Amaranthus retroflexus; test: Pre-emergence herbicidal action; conditions: application rate 20 g/ha
In short: as §3

[21] = tested on: Triticum aestivum; test: Post-emergence crop plant compatibility; conditions: application rate 5 g/ha
In short: (§4)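 Greenhouse crop plants in sandy loam sprayed at one-leaf stage (2-3 weeks after sowing) with WP or EC formulations plus 0.5% additive, 600 l/ha water, at 5 g/ha or 20 g/ha. Damage scored visually after about 3 weeks as % versus untreated controls (100% = plants dead).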

[22] = tested on: Oryza sativa; test: Post-emergence crop plant compatibility; conditions: application rate 5 g/ha
In short: as §4

[23] = tested on: Triticum aestivum; test: Pre-emergence crop plant compatibility; conditions: application rate 20 g/ha
In short: as §1

[24] = tested on: Viola tricolor; test: Post-emergence herbicidal action; conditions: application rate 5 g/ha
In short: as §2

[25] = tested on: Setaria viridis; test: Post-emergence herbicidal action; conditions: application rate 5 g/ha, rated visually after about 3 weeks vs untreated controls
In short: as §2

[26] = tested on: Polygonum convolvulus; test: Post-emergence herbicidal action; conditions: application rate 5 g/ha
In short: as §2

[27] = tested on: Matricaria inodora; test: Post-emergence herbicidal action; conditions: application rate 5 g/ha, rated visually after about 3 weeks vs untreated controls
In short: as §2

[28] = tested on: Alopecurus myosuroides; test: Post-emergence herbicidal action; conditions: application rate 5 g/ha, rated visually after about 3 weeks vs untreated controls
In short: as §2

SMILES	Glycine max (efficacy in %) [1] [%]	Digitaria sanguinalis (efficacy in %) [2] [%]	Veronica persica (efficacy in %) [3] [%]	Pharbitis purpurea (efficacy in %) [4] [%]	Abutilon theophrasti (efficacy in %) [5] [%]	Echinochloa crus-galli (efficacy in %) [6] [%]	Amaranthus retroflexus (efficacy in %) [7] [%]	Digitaria sanguinalis (efficacy in %) [8] [%]	Lolium rigidum (efficacy in %) [9] [%]	Viola tricolor (efficacy in %) [10] [%]	Setaria viridis (efficacy in %) [11] [%]	Polygonum convolvulus (efficacy in %) [12] [%]	Veronica persica (efficacy in %) [14] [%]	Matricaria inodora (efficacy in %) [15] [%]	Pharbitis purpurea (efficacy in %) [16] [%]	Abutilon theophrasti (efficacy in %) [18] [%]	Amaranthus retroflexus (efficacy in %) [20] [%]	Triticum aestivum (efficacy in %) [21] [%]	also measured
Cn1c(C(F)(F)F)cc(=O)n(-c2cc(Oc3cccnc3OCC(=O)OCCOC(F)(F)F)c(Cl)cc2F)c1=O [I.15-41]	20	100	100	100	100	100	100	100	100	100	100	100	100	100	100	100	100	20	Avena fatua (efficacy in %) ([13]; application rate 80 g/ha): 90%; Alopecurus myosuroides (efficacy in %) ([17]; application rate 80 g/ha): 100%; Echinochloa crus-galli (efficacy in %) ([19]; application rate 80 g/ha): 100%; Oryza sativa (efficacy in %) [22]: 20%
Cn1c(C(F)(F)F)cc(=O)n(-c2cc(Oc3cccnc3OCC(=O)OCC3NC(=O)NC3=O)c(Cl)cc2F)c1=O (stereo not shown) [I.15-280]	0	100	100	100	100	80	100	100	100	100	100	100	100	100	90	100	100	20	Triticum aestivum (efficacy in %) [23]: 10%; Viola tricolor (efficacy in %) [24]: 100%; Setaria viridis (efficacy in %) [25]: 100%; Polygonum convolvulus (efficacy in %) [26]: 100%; Matricaria inodora (efficacy in %) [27]: 90%; Alopecurus myosuroides (efficacy in %) [28]: 90%; Avena fatua (efficacy in %) ([13]; application rate 20 g/ha): 80%; Alopecurus myosuroides (efficacy in %) ([17]; application rate 20 g/ha): 90%; Echinochloa crus-galli (efficacy in %) ([19]; application rate 20 g/ha): 90%
